According to PMC6496074, “The Evolution of Azole Resistance in Candida albicans Sterol 14α-Demethylase (CYP51) through Incremental Amino Acid Substitutions” (Antimicrobial Agents and Chemotherapy, 2019):
In brackets after ≈: the same amount, converted by molar mass. Several values for one entry are separate records, joined by “and”; a condition that tells them apart may be missing. Equal entries are not always repeated.

Key:
[1] = tested on: CaCYP51 Y132F+F145L; assay: CYP51 reconstitution assay; format: biochemical, Candida albicans; conditions: Y132F+F145L
Description: (§1) Azole antifungal agents were added in 2.5 μl dimethyl sulfoxide, followed by 10 min of incubation at 37°C prior to assay initiation with 4 mM β-NADPH-Na4. The samples were then shaken for 15 min at 37°C. Sterol metabolites were recovered by extraction with ethyl acetate, followed by derivatization with 0.1 ml N,O-bis(trimethylsilyl)trifluoroacetamide (BSTFA)–trimethylchlorosilane (TMCS) (99:1) and 0.3 ml anhydrous pyridine (2 h at 80°C), prior to analysis by gas chromatography-mass spectrometry (GC-MS) ([52]). IC50 determinations were performed in duplicate.

[2] = tested on: C. albicans SC5314 strain with CaCYP51 substitution G448E; assay: CLSI broth microdilution MIC; format: cell-based, Candida albicans; conditions: for MIC: Candida albicans, SC5314, RPMI 1640, 24 h, 35°C, 50% reduction in growth
Source text: (§2) Strains expressing seven single mutations (Y132F, K143R, F145L, S405F, G448E, G450E, G464S) and three double mutations (Y132F+K143R, Y132F+F145L, D278N+G464S) were selected from a previous study ([36]). Two additional strains expressing the Y132H and D278N CYP51 gene mutations were created utilizing the SAT1/FLP cassette described previously ([44]). […] Successful transformants were screened on yeast-peptone-dextrose agar plates containing nourseothricin and confirmed via Southern hybridization. Genomic DNA from nourseothricin-screened transformants was digested with the HindIII restriction enzyme, and the resulting DNA digests were loaded on 1% agarose gels containing ethidium bromide. Digested samples were visualized briefly under UV light after approximately 2 h of electrophoresis (120 V) to confirm appropriate band separation. Lanes containing digested DNA in the gel were transferred onto a nitrocellulose membrane via vacuum suction, and DNA was cross-linked to the membrane through UV exposure. PCR amplification of the genomic DNA from parent isolate SC5314 using primers ERG11_Probe_F (5′-[…]-3′) and ERG11_Probe_R (5′-[…]-3′) generated a 254-bp product, used as a probe for the ERG11 gene locus. The probe was labeled and prepared using an Amersham AlkPhos direct labeling and detection system (GE Life Sciences) and hybridized to the membrane through overnight incubation at 55°C. Bands containing the hybridized, alkaline phosphatase-labeled probe corresponding to either wild-type ERG11 alleles (2,678 bp) or successfully replaced alleles with the SAT1/FLP cassette included (4,318 bp) or recycled (3,119 bp) were visualized with the CDP-Star chemiluminescent detection reagent. To confirm the sequence of the replaced ERG11 allele, a DNA fragment containing the ERG11 ORF and approximately 435 bp upstream of the start codon and 229 bp downstream of the ERG11 stop codon was PCR amplified using primers CaERG11_A_(ApaI) (5′-[…]-3′) and CaERG11_E_(XhoI) (5′-[…]-3′). The resulting DNA fragment was purified and Sanger sequenced on an ABI model 3130XL genetic analyzer with the following sequencing primers: CaERG11SeqA (5′-[…]-3′), CaERG11SeqB (5′-[…]-3′), CaERG11SeqC (5′-[…]-3′), CaERG11SeqD (5′-[…]-3′), CaERG11SeqE (5′-[…]-3′), and CaERG11SeqF (5′-[…]-3′).
(§3) Azole MICs were determined using the broth microdilution method described by the Clinical Laboratory and Standards Institute ([45], [46]). […] Measurements were read visually at 24 h after incubation at 35°C for a 50% reduction in growth from that in the drug-free control wells. MIC measurements were performed in duplicate, and the MIC was reported as the higher of two values for all strains tested. In cases where the duplicate MIC values were not identical, the higher of the two MIC values is reported. […] Additionally, no MICs differed by more than 2 dilutions for a given strain and drug.

[3] = tested on: C. albicans SC5314 strain with CaCYP51 substitution S405F; assay: CLSI broth microdilution MIC; format: cell-based, Candida albicans; conditions: for MIC: Candida albicans, SC5314, RPMI 1640, 24 h, 35°C, 50% reduction in growth
Source text: as §2, §3

[4] = tested on: CaCYP51 Y132F+K143R; assay: CYP51 reconstitution assay; format: biochemical, Candida albicans; conditions: Y132F+K143R
Description: as §1

[5] = molecular target: T1, CaCYP51 D278N (Candida albicans, UniProt P10613, D278N); assay: Azole ligand binding (type II difference spectra); conditions: 4 μM protein, 22°C, ± standard deviation, triplicate, read-out: dissociation constant (Kd)
T1 construct: made in house; host or cells: E. coli DH5α (pCWori+)
Description: (§4) Studies of azole antifungal binding to 4 μM CaCYP51 proteins were performed as previously described ([53]) using quartz split cuvettes with a 4.5-mm light path. […] Azole antifungals were progressively titrated against the CaCYP51 proteins in 0.1 M Tris-HCl (pH 8.1) and 25% glycerol at 22°C, with equivalent volumes of dimethyl sulfoxide also being added to the CYP51-containing compartment of the reference cuvette. The absorbance difference spectra between 500 and 350 nm were determined after each incremental addition of azole, with binding saturation curves constructed from the change in the peak and trough absorbance (ΔApeak-trough) against the azole concentration. The dissociation constant (Kd) of the enzyme-azole complex for each azole was determined by nonlinear regression (Levenberg-Marquardt algorithm) using a rearrangement of the Morrison equation for tight ligand binding ([54], [55]). Tight binding is normally observed when the Kd for a ligand is similar to or lower than the concentration of the enzyme present ([56]). Where ligand binding was weak, the Michaelis-Menten equation was used to fit the data. Each binding determination was performed in triplicate. The chemical structures of the azole antifungals used in this study are shown in Fig. S5 in the supplemental material.

[6] = molecular target: T2, CaCYP51 D278N+G464S (Candida albicans, UniProt P10613, D278N/G464S); assay: Azole ligand binding (type II difference spectra)
T2 construct: made in house; host or cells: E. coli DH5α (pCWori+)
Description: as §4

[7] = molecular target: T3, CaCYP51 G307S (Candida albicans, UniProt P10613, G307S); assay: Azole ligand binding (type II difference spectra); conditions: 4 μM protein, 22°C, ± standard deviation, triplicate, read-out: dissociation constant (Kd)
T3 construct: made in house; host or cells: E. coli DH5α (pCWori+)
Description: as §4

[8] = molecular target: T4, CaCYP51 K143R (Candida albicans, UniProt P10613, K143R); assay: Azole ligand binding (type II difference spectra); conditions: 4 μM protein, 22°C, ± standard deviation, triplicate, read-out: dissociation constant (Kd)
T4 construct: made in house; host or cells: E. coli DH5α (pCWori+)
Description: as §4

[9] = molecular target: T5, CaCYP51 S279F (Candida albicans, UniProt P10613, S279F); assay: Azole ligand binding (type II difference spectra); conditions: 4 μM protein, 22°C, ± standard deviation, triplicate, read-out: dissociation constant (Kd)
T5 construct: made in house; host or cells: E. coli DH5α (pCWori+)
Description: as §4

[10] = molecular target: T6, CaCYP51 Y132F+F145L (Candida albicans, UniProt P10613, F145L/Y132F); assay: Azole ligand binding (type II difference spectra)
T6 construct: made in house; host or cells: E. coli DH5α (pCWori+)
Description: as §4

[11] = molecular target: T7, CaCYP51 Y132F+K143R (Candida albicans, UniProt P10613, K143R/Y132F); assay: Azole ligand binding (type II difference spectra)
T7 construct: made in house; host or cells: E. coli DH5α (pCWori+)
Description: as §4

[12] = tested on: CaCYP51 proteins with amino acid substitutions; assay: CYP51 reconstitution assay, span over several CaCYP51 proteins; format: biochemical, Candida albicans
Description: as §1

T7 sequence (P10613 whole entry, looked up, stated change not applied): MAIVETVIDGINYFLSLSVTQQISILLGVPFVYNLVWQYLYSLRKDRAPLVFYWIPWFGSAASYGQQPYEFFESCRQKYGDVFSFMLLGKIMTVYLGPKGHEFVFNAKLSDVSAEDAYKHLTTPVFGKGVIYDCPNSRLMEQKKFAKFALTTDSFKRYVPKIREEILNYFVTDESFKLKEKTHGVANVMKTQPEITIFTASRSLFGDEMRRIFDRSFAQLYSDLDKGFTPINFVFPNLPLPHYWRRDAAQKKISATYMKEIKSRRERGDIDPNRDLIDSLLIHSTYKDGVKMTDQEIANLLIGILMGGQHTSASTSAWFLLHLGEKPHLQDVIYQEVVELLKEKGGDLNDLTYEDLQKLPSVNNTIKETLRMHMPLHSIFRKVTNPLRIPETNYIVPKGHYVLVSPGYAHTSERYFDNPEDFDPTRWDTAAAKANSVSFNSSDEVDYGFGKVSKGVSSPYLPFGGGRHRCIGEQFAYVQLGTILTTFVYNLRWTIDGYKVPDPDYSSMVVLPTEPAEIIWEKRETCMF
T2 sequence (P10613 whole entry, looked up, stated change not applied): as above
T6 sequence (P10613 whole entry, looked up, stated change not applied): as above
T3 sequence (P10613 whole entry, looked up, stated change not applied): as above
T5 sequence (P10613 whole entry, looked up, stated change not applied): as above
T1 sequence (P10613 whole entry, looked up, stated change not applied): as above
T4 sequence (P10613 whole entry, looked up, stated change not applied): as above

SMILES | fold increase in IC50 over wild-type enzyme [1] | fold increase in MIC over SC5314 [2] | MIC [2] | MIC [3] | fold increase in IC50 over wild-type enzyme [4] | fold increase in MIC over SC5314 [3] | Kd [5] | apparent Kd, fold lower than wild-type enzyme [6] | Kd ([6]; 4 μM protein, 22°C, ± standard deviation, triplicate, read-out: dissociation constant (Kd)) | Kd [7] | Kd [8] | Kd [9] | Kd [10] | Kd, fold higher than wild-type enzyme ([10]; Y132F+F145L) | Kd [11] | Kd, fold larger than wild-type enzyme ([11]; Y132F+K143R) | Residual CYP51 activity, span over proteins ([12]; 4 μM voriconazole, K143R, S279F, G450E, Y132F+K143R, Y132H+K143R, Y132F+F145L, D278N+G464S) | IC50 relative to that of the wild-type enzyme ([12]; none of the substituted CaCYP51 proteins greater than this)
CC[C@@H]([C@H](C)O)n1ncn(-c2ccc(N3CCN(c4ccc(OC[C@@H]5CO[C@@](Cn6cncn6)(c6ccc(F)cc6F)C5)cc4)CC3)cc2)c1=O [Posaconazole, posaconazole] | 2.2 fold | 2 fold | 0.06 µg/mL (≈ 0.0856 µM) | ≤ 0.03 µg/mL | – | – | – | – | – | – | – | – | – | – | – | – | – | –
OC(Cn1cncn1)(Cn1cncn1)c1ccc(F)cc1F [Fluconazole, fluconazole] | 10 fold and 10.1 fold | – | 8 µg/mL (≈ 26.1 µM) | 4 µg/mL (≈ 13.1 µM) | 15 fold and 15.3 fold | at least 2 fold | 0.12 ± 0.035 µM | 3 fold | 0.015 ± 0.009 µM | 0.133 ± 0.013 µM | 0.118 ± 0.024 µM | 0.232 ± 0.036 µM | 0.202 ± 0.057 µM | 4 fold | 15.6 µM | 312 fold | – | –
C[C@@H](c1ncncc1F)[C@](O)(Cn1cncn1)c1ccc(F)cc1F [Voriconazole, voriconazole] | – | – | 0.25 µg/mL (≈ 0.716 µM) | 0.25 µg/mL (≈ 0.716 µM) | – | – | – | – | – | – | – | – | – | – | – | – | over 3% | –
CCC(C)n1ncn(-c2ccc(N3CCN(c4ccc(OCC5COC(Cn6cncn6)(c6ccc(Cl)cc6Cl)O5)cc4)CC3)cc2)c1=O (centres unmarked) [Itraconazole, itraconazole] | – | – | 0.25 µg/mL (≈ 0.354 µM) | 0.25 µg/mL (≈ 0.354 µM) | – | – | – | – | – | – | – | – | – | – | 0.127 ± 0.033 µM | – | – | ≤ 1.6 fold
